From paper PMC7125190, “Native/citrullinated LL37-specific T-cells help autoantibody production in Systemic Lupus Erythematosus” (Scientific Reports, 2020)

Tests used:
CD3+CD4+ T-cells = experiment: T-cell proliferation assay (BrdU incorporation of PBMC); format: cell-based, human; details: for CLE patients whose CD3+CD4+ cells proliferated: CLE PBMC; for CLE patients whose CD3+CD4+ cells proliferated / SLE patients whose CD3+CD4+ cells proliferated: day 6, BrdU; for CLE patients whose CD3+CD4+ cells proliferated / PSO patients whose T-cells responded / RA patients whose T-cells proliferated / SLE patients whose CD3+CD4+ cells proliferated: positive if SI ≥3; for T-cell proliferation in HD/SSc: HD (LL37, cit-LL37) and SSc (LL37) PBMC; for PSO patients whose T-cells responded: PSO PBMC, ten of twenty-nine (LL37), 3 of 21 (cit-LL37); for PSO patients whose T-cells responded / RA patients whose T-cells proliferated: BrdU; for RA patients whose T-cells proliferated: RA PBMC, two of 15; for SLE patients whose CD3+CD4+ cells proliferated: SLE PBMC, 18 of 40 (LL37), 11 of 25 (cit-LL37); for Change of T-cell response on follow-up: eight SLE patients, up to 36 months of successful standard therapy, statistically significant for native LL37; for Proliferative response in LL37-non-responders: three SLE LL37-non-responders
Method: PBMCs were purified, from EDTA-treated blood, on Ficoll-Hypaque (Pharmacia Fine Chemicals, Uppsala, Sweden) were incubated (10^5 cells/well) in 96-well-flat-bottom-microplates (BD) in T cell- […]
penicillin, and 100 μg/mL streptomycin), with/without peptides. We performed assays on fresh cells, within 1-to-3 hours from collection, or on PBMCs frozen in 90% FCS-10%DMSO, whose viability we assessed by Trypan blue exclusion, at inverted microscope.
At day3 and 5, BrdU was added (1 μg/mL). BrdU-incorporation was detected by APC-labeled anti-BrdU antibody (BD Pharmingen), after surface staining by flow cytometry. Internal control for T-cell viability and proliferation was PHA treatment (2 μg/mL). SI for proliferation was calculated by dividing percent of BrdU-staining in the presence of each peptide used to stimulate cells by percent of BrdU-staining in the absence of peptide stimulation. SI for proliferation was considered positive when>3. This cut-off was obtained by calculating the mean+2DS [1.5 + 2 (0.6)] (of the stimulation indexes calculated as above) of the proliferation of HD.
Basal % of proliferation was set using, as reference, an isotype matched antibody staining (APC- […]
Assays were repeated twice with each patient. In rare cases in which background proliferation exceed antigen-specific proliferation the assay was repeated three times. Concomitant phenotype analysis of LL37-responder T-cells included staining for CD4, CD8, CXCR5, PD1, ICOS, CCR6. […]

[1] = tested on: serum antibodies (anti-native LL37/anti-cit-LL37); experiment: ELISA for autoantibody detection in sera; format: binding, human; details: for Antibody reactivity of control disease sera compared to SLE: psoriasis, RA, SSc and UC sera
Method: Anti-native/cit-LL37, other antigen antibodies (anti-DNA and anti-RNA), and total anti-human IgG were measured by ELISA as described. Briefly, 96-well flat-bottom plates (Non-Binding surface polystyrene, Corning, USA) are coated with 2 μg/mL of native LL37/cit-LL37 or control proteins or human DNA or human RNA[9] or anti-human IgG antibody (Sigma) in carbonate buffer (0.1 M NaHCHO3, pH 9) for 2 hours (or over night) and washed four times with PBS 0.1% Tween-20. This washing buffer was used for washing at all steps. The blocking buffer containing 2% bovine serum albumin (BSA, Sigma) in PBS was used for at least 1 hour (or over night) to saturate unspecific binding sites. After washing, sera were diluted at various concentrations (usually 1:100 or 1:200) in PBS 2% BSA (cell culture supernatants were diluted 1:2, 1:4 or 1:10) followed by 1 hour incubation with a horseradish peroxidase–conjugated (HRP) goat anti-human IgG (Sigma-Aldrich), diluted 1:10,000 in PBS. The color was developed for 5 minutes with 3,3’,5,5’-tetramethylbenzidine (TMB) substrate (Sigma-Aldrich). The reaction was stopped by adding 50 μl of 2 N H2SO4, and absorbance determined at 450 nm with a reference wavelength of 540 nm. Anti-dsDNA in sera of lupus patients were detected by the standard clinical test Kallestad Crithidia luciliae Complete Kits for detection and semi-quantitation of autoantibodies to native DNA (nDNA) antigens by indirect fluorescence antibody (IFA) procedure. ELISA for detection of anti-tetanus antibodies (anti-TT) was from Abnova (Taiwan).

[2] = eight SLE patients with T-cell follow-up, successful standard therapy
[3] = three SLE patients unresponsive to treatment
[4] = twenty-one SLE patients responding to treatment, 6-to-36 months

| Substance | CLE patients whose CD3+CD4+ cells proliferated (CD3+CD4+ T-cells) | T-cell proliferation in HD/SSc (CD3+CD4+ T-cells) | PSO patients whose T-cells responded (CD3+CD4+ T-cells) | RA patients whose T-cells proliferated (CD3+CD4+ T-cells) | SLE patients whose CD3+CD4+ cells proliferated (CD3+CD4+ T-cells) | Proliferative response at remission (CD3+CD4+ T-cells; SLE at remission (T1), only at the highest dose) | Proliferative response at lower antigen dose, cit-LL37 versus native (CD3+CD4+ T-cells; SLE, low dose 1 μg/mL, 12 LL37/cit-LL37 responders) | Change of T-cell response on follow-up (CD3+CD4+ T-cells) | Proliferative response in LL37-non-responders (CD3+CD4+ T-cells) | Antibody reactivity over time [1, 2] | Antibody reactivity of control disease sera compared to SLE [1] | Antibody reactivity over time [1, 3] | Antibody reactivity over time [1, 4] | SLE patients with antibody reactivity ([1]; SLE sera, twenty-one (native LL37) and eighteen (cit-LL37) of 40) |
| --- | --- | --- | --- | --- | --- | --- | --- | --- | --- | --- | --- | --- | --- | --- |
| LLGDFFR(cit)KSKEKIGKEFKR(cit)IVQR(cit)IKDFLR(cit)NLVPR(cit)TES [cit-LL37, citrullinated LL37 (citrullinated at all five arginin positions)] | 3 of 5 | no responses in HD | 14% | 13% | 44% | still significant only in response to cit-LL37 | T-cells responded better to cit-LL37 than the native counterpart at lower antigen doses | decreased | no proliferation | significantly declined | significantly weaker | increased | declined in parallel with SLEDAI reduction |  |
| LLGDFFRKSKEKIGKEFKRIVQRIKDFLRNLVPRTES [LL37, native LL37, antimicrobial peptide, 37 aa] | three of five | No SSc or HD showed a significant response | 34% | 13% | 45% |  |  | decreased | no proliferation | significantly declined | significantly weaker | increased | declined in parallel with SLEDAI reduction | 53% |
